From patent US20240400572A1, “COMPOUNDS AND METHODS FOR TREATING CANCERS THAT ARE MGMT DEFICIENT REGARDLESS OF MMR STATUS” (Yale University, priority 2021, published 2024)

How the values were obtained:
Format in all cases: cell-based, human
[1] = test system: LN229 MGMT+/−, MMR+/− isogenic lines; test: Short-term cell viability assay with ROS scavenger NAC; settings: pre-treated with increasing concentrations of NAC
Protocol: FIGS. ZS5A-ZS5D. […] Columns, mean; error bars, SD; n=2 independent analyses. For (FIG. ZS5A) and (FIG. ZS5C), points, mean; error bars, SD; n=3 technical replicates.
(§1) Short-term Cell Viability Assay. Cells were seeded in 96-well plates at 1000 or 2000 cells/well and allowed to adhere at 23° C. for 60 min and then incubated overnight at 37° C. Cells were treated with indicated concentrations of compounds in triplicate for 4-6 days prior to fixation with 3.7% paraformaldehyde and nuclear staining with 1 μg/mL Hoechst 33342 dye. Cells were imaged on a Cytation 3 imaging reader (BioTek) and quantified using CellProfiler software.

[2] = test system: DLD1 BRCA2+/− and BRCA2−/− cells; test: Short-term cell viability assay in DLD1 isogenic model
Protocol: FIGS. Z4A-Z4I. KL-50 (4a) activates DNA damage response pathways and cycle arrest in MGMT− cells, independent of MMR, and induces sensitivity in cells deficient in ICL or HR repair. (FIGS. Z4A, Z4B, and Z4C) Phospho-SER139-H2AX (γH2AX) (A), 53BP1 (FIG. Z4B), and phospo-SER33-RPA2 (pRPA) (FIG. Z4C) foci formation quantified by % cells with 10 foci in LN229 MGMT+/−, MMR+/− cells treated with 0.1% DMSO control, 20 μM KL-50 (4a), or 20 μM TMZ (1a) for 48 h. Columns, mean; error bars, SD; n≥5 technical replicates. Additional time course data is presented in FIG. ZS6B to D. (FIG. Z4D) Representative foci images of data in (FIG. Z4A) to (FIG. Z4C). (FIG. Z4E) Percentage of cells in G1, S, and G2 cell cycle phases after treatment as in (A) to (C), measured using integrated nuclear (Hoechst) staining intensity. Columns, mean; error bars, SD; n=3 independent analyses. (FIG. Z4F) Change in percent cells with 1 micronuclei from baseline (DMSO control) after treatment as in (FIG. Z4A) to (FIG. Z4C). Columns, mean; error bars, SD; […] technical replicates; **** p<0.0001; ns, not significant. Additional validation is presented in FIG. ZS9, A and B. (FIG. Z4G) Short-term viability assay curves for KL-50 (4a) in PD20 cells, deficient in FANCD2 (FANCD2−/−) or complemented with FANCD2 (+FANCD2). (FIG. Z4H) Short-term viability assay curves for KL-50 (4a) in PEO4 (BRCA2+) and PEO1 (BRCA2−/−) cells pre-treated with 0.01% DMSO control or 10 μM O^6BG (+O^6BG) for 1 h prior to KL-50 (4a) addition. (FIG. Z4I) Short-term viability assay curves for KL-50 (4a) in DLD1 BRCA2+/− and BRCA2−/− cells pre-treated with 0.01% DMSO control or 10 μM O^6BG (+O^6BG) for 1 h prior to KL-50 (4a) addition. For (FIG. Z4G), (FIG. Z4H), and (FIG. Z4I), points, mean; error bars, SD; n=3 technical replicates.
as §1

LN229 MGMT−/MMR− cells = test: Short-term cell viability assay; settings: Homo sapiens, LN-229
Protocol: as §1
Statistical analysis. Statistical analysis was performed using GraphPad Prism software. Data are presented as mean or median±SD or SEM as indicated. For in vitro short-term growth delay experiments, IC50 values were determined from the nonlinear regression equation, [inhibitor] vs normalized response with variable slope. […]
We synthesized the imidazotetrazine 4a (KL-50) and the triazene 4b (KL-85), as vehicles to deliver 2-fluoroethyl diazonium (4c), and a series of related agents to probe structure-activity relationships in tissue culture (FIG. Z1, D and F). […] We evaluated the cytotoxicity of our compounds in short-term cell viability assays against four isogenic LN229 glioblastoma cell lines engineered to be proficient or deficient in MGMT and/or MMR activity, using short hairpin RNAs (shRNAs) targeting MSH2 (referred to as MGMT+/−, MMR+/− cells hereafter; FIG. ZS2A). […]

BJ fibroblast cells = test: Short-term cell viability in normal fibroblasts; settings: KL-50 compared with TMZ
Protocol: Cell Culture. LN229 MGMT− and MGMT+ cell lines were a gift from B. Kaina (Johannes Gutenberg University Mainz, Mainz, Germany) and grown in DMEM with 10% FBS (Gibco). DLD1 BRCA2+/− and BRCA2−/− cell lines (Horizon Discovery, Cambridge, UK) were grown in RPMI 1640 with 10% FBS. HCT116 MLH1−/− and HCT116+Chr3 cell lines were a gift from T. Kunkel (National Institute of Environmental Health Sciences, Durham, NC) and grown in DMEM with 10% FBS, with […] G418 (Sigma) for HCT116+Chr3 cells. PD20 cell lines complemented with empty vector (+EV), wildtype FANCD2 (+FD2), or K561R ubiquitination-mutant FANCD2 (+KR) were a gift from G. Kupfer and P. Glazer (Yale University, New Haven, CT) and growth in DMEM with 10% FBS. PEO1 and PEO4 cell lines were a gift from T. Taniguchi (Fred Hutchinson Cancer Research Center, Seattle, WA) and were grown in DMEM with 10% FBS. BJ fibroblasts (normal human fibroblast cells) were purchased from ATCC (CRL-2522) and grown in DMEM with 10% FBS. […] All human cell lines were validated by short tandem repeat profiling (excluding BJ fibroblasts which were used within 6 passages of receiving from ATCC) and confirmed negative for mycoplasma by quantitative RT-PCR.
Short-term Cell Viability Assay. […] Cells were imaged on a Cytation 3 imaging reader (BioTek) and quantified using CellProfiler software.

SMILES: NC(=O)c1ncn2c(=O)n(CCF)nnc12 [KL-50, 3-(2-fluoroethyl)-4-oxo-3H,4H-imidazo[4,3-d][1,2,3,5]tetrazine-8-carboxamide]
- rescue of toxicity by NAC (in words) [1]: did not result in rescue
- sensitivity of BRCA2-deficient cells (in words) ([2]; DLD1 BRCA2−/− versus BRCA2+/−, ± 10 μM O^6BG): BRCA2 loss enhanced the toxicity
- therapeutic index (TI) ([2]; ratio of IC50 values in MGMT+/BRCA2+ cells compared to MGMT−/BRCA2− cells): ~600 fold
- IC50 (LN229 MGMT−/MMR− cells): ~20 µM
- cytotoxicity in normal human fibroblast cells (in words) (BJ fibroblast cells): no increase in toxicity
